Laboratory results: publication PMC6177136, “Hybrid topoisomerase I and HDAC inhibitors as dual action anticancer agents” (PLoS ONE, 2018)

System: NCI-H460 NSCLC cells
Test: FACS analysis of cell cycle and apoptosis
Type: cell-based, Human
Conditions: 72 h at own IC80 dose, PI staining

## CC[C@@]1(O)C(=O)OCc2c1cc1n(c2=O)Cc2c-1nc1ccc(O)cc1c2C=NOCCCCCC(=O)NO [Compound 3d, 6-(10-hydroxycamptothecin-7-ylmethyleneaminooxy)-hexanoic acid hydroxyamide]
  G0/1 (%): 12.1%
  G2/M (%): 11.9%
  S (%): 76.0%
apoptosis
  Sub-G0/1 (%): 15.2%
